Assays:
[1] = molecular target: human L-Selectin-IgG-chimera (Homo sapiens, UniProt P14151); experiment: Sialyl Lewis^x Tyrosine Sulfate Assay (sLe^x TSA), L-selectin; settings: inhibition of binding of selectin chimera to sLe^x-tyrosine sulfate polyacrylamide ligand complex
Method: (§1) Compounds of the present invention are assayed on a molecular level for their ability to inhibit the binding of P-, L-, or E-selectin chimeric molecules to sLe^x and tyrosinesulfate residues linked to a polymeric matrix as a PSGL-1 substitute. IC50-values are determined.
(§2) Microtiter plates are coated overnight in carbonate buffer pH9.6 with goat anti human Fc mAB (10 μg/ml). After washing in assay buffer (25 mM 4-(2-hydroxyethyl)-1-piperazineethanesulfonic acid (HEPES), 150 mM NaCl, 1 mM CaCl2 pH7.4) and blocking (3% bovine serum albumin (BSA) in assay buffer) plates are incubated for 2 h at 37° C. with human P-Selectin-IgG-chimera (0.61 nM respectively 150 ng/mL) or human L-Selectin-IgG-chimera (0.61 nM respectively 89 ng/mL) or human E-Selectin-IgG-chimera (0.61 nM respectively 131 ng/mL). 5 μl of sLe^x-tyrosine sulfate polyacrylamide (1 mg/ml) carrying 15% sLe^x, 10% Tyrosine-sulfate and 5% biotin is complexed with 20 μl Streptavidin-Peroxidase solution (1 mg/ml) and 25 μl assay buffer without CaCl2. For use in the assay, the ligand complex is diluted 1:10000 in assay buffer and further diluted 1:1 with varying amounts of compounds in assay buffer incl. 2% DMSO. This mixture is added to the wells precoated with E- or P-selectin. After incubation for 2 h at 37° C., wells are washed for six times with in assay buffer incl. 0.005% Polyoxyethylenesorbitan monolaurate (TWEEN 20), developed for 10-15 min with 20 μl 3,3′,5,5′-tetramethylbenzidine (TMB)/H202 substrate solution and stopped with 20 μl 1 M H2SO4. Bound sLe^x-Tyrosine sulfate ligand complex is determined by measuring optical density at 450 nm vs. 620 nm in a Fusion alpha-FP reader (sold from Packard Bioscience, Dreieich, Germany).

[2] = molecular target: T1, human P-Selectin-IgG-chimera (Homo sapiens, UniProt P16109); experiment: Flow chamber assay / cell adhesion and rolling under flow conditions, P-selectin; type: cell-based; settings: 125 μM compound; HL-60 cells; flow shear 1 dyne/cm^2; attached cells after 5 minutes continuous flow
Method: (§3) To assess the capability of compounds to inhibit cell binding under dynamic conditions resembling the flow in a blood vessel, flow chamber assays addressing/testing binding of HL-60 cells/various cell lines to P-selectin, L-selectin and E-selectin chimeric molecules are performed.
(§4) Cell attachment under flow conditions are determined using a parallel flow chamber system. A 35 mm polystyrene culture dish is coated for 1 hour at room temperature with coating buffer (50 mM tris-(hydroxymethyl)aminomethane buffer (Tris), 150 mM NaCl, 2 mM CaCl2; pH 7.4) containing human E- or P-selectin-IgG chimera at concentrations of 2.5 μg/ml or 10 μg/ml, respectively. After removal of the coating solution non specific binding sites are blocked for an additional hour with 1% BSA in coating buffer at room temperature. After washing with assay buffer (“Roswell Park Memorial Institute 1640” (RPMI 1640)+10 mM HEPES) the dish is fitted into a parallel plate laminar flow chamber (sold from Glycotech, Rockville, Md.) and mounted on an inverted phase-contrast microscope (sold from Olympus, Hamburg, Germany) equipped with a CCD camera (JVC) that is connected to a PC. Employing a peristaltic pump (sold from Ismatec, Wertheim-Mondfeld, Germany) the re-circulating system is equilibrated with assay buffer containing 125 μM compound or vehicle control (DMSO). Cells (1 million/ml) are added to the chamber and allowed to distribute for 2 minutes at a high flow rate. The flow rate is then decreased resulting in a calculated flow shear of 1 dyne/cm^2. Video sequences of 10 low power fields are digitally recorded after 5 minutes continuous flow. The percentage of modulation is calculated from the mean number of cells per field that attached to the coated dish surface in the presence versus absence of compound of […].

[3] = molecular target: T1, human P-Selectin-IgG-chimera; experiment: Sialyl Lewis^x Tyrosine Sulfate Assay (sLe^x TSA), P-selectin; settings: inhibition of binding of selectin chimera to sLe^x-tyrosine sulfate polyacrylamide ligand complex
Method: as §1, §2

[4] = molecular target: T2, human E-Selectin-IgG-chimera (Homo sapiens, UniProt P16581); experiment: Flow chamber assay / cell adhesion and rolling under flow conditions, E-selectin; type: cell-based; settings: 125 μM compound; HL-60 cells; flow shear 1 dyne/cm^2; attached cells after 5 minutes continuous flow
Method: as §3, §4

[5] = molecular target: T2, human E-Selectin-IgG-chimera; experiment: Sialyl Lewis^x Tyrosine Sulfate Assay (sLe^x TSA), E-selectin; settings: inhibition of binding of selectin chimera to sLe^x-tyrosine sulfate polyacrylamide ligand complex
Method: as §1, §2

human L-Selectin-IgG-chimera, sequence (P14151 with tags, fused parts or gaps limits assumed): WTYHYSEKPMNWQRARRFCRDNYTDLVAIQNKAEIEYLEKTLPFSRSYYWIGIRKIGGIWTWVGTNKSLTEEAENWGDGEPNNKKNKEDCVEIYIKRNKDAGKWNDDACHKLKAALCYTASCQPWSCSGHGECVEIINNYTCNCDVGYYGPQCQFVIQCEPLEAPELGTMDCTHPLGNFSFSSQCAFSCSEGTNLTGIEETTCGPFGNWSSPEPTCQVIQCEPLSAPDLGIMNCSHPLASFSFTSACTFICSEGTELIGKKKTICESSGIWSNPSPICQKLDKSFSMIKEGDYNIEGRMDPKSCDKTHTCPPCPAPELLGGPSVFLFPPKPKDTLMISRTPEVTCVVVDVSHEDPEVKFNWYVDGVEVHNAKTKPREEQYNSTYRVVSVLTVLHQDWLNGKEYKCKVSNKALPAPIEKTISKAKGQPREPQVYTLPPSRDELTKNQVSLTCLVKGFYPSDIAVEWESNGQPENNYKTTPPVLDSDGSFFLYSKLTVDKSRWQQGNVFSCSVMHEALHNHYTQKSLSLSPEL
T1 sequence (P16109 with tags, fused parts or gaps limits assumed): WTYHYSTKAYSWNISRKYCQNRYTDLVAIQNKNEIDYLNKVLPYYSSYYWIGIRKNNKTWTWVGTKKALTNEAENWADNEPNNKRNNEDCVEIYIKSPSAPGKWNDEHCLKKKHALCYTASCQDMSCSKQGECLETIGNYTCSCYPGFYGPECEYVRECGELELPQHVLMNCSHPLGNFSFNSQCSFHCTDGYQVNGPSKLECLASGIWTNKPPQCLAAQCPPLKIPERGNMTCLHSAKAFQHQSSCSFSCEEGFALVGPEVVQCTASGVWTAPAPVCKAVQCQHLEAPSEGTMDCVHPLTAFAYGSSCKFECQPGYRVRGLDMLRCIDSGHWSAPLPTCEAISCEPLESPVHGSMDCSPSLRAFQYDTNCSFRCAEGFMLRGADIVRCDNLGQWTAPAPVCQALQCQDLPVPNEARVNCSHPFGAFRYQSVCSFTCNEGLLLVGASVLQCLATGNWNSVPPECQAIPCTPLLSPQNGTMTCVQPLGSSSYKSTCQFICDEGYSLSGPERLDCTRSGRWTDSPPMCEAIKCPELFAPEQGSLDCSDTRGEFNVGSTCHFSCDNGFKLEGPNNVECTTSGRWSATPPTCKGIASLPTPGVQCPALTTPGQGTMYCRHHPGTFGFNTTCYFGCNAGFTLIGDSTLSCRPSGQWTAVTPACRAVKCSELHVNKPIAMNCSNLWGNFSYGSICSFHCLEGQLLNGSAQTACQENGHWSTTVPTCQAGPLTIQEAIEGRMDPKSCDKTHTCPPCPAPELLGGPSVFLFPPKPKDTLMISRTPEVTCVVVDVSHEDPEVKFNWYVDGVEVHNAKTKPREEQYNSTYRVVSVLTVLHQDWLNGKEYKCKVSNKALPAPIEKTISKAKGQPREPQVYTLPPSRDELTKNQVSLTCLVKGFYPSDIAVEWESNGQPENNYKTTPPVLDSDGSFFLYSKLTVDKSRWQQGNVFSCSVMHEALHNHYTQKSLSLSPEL
T2 sequence (P16581 with tags, fused parts or gaps limits assumed): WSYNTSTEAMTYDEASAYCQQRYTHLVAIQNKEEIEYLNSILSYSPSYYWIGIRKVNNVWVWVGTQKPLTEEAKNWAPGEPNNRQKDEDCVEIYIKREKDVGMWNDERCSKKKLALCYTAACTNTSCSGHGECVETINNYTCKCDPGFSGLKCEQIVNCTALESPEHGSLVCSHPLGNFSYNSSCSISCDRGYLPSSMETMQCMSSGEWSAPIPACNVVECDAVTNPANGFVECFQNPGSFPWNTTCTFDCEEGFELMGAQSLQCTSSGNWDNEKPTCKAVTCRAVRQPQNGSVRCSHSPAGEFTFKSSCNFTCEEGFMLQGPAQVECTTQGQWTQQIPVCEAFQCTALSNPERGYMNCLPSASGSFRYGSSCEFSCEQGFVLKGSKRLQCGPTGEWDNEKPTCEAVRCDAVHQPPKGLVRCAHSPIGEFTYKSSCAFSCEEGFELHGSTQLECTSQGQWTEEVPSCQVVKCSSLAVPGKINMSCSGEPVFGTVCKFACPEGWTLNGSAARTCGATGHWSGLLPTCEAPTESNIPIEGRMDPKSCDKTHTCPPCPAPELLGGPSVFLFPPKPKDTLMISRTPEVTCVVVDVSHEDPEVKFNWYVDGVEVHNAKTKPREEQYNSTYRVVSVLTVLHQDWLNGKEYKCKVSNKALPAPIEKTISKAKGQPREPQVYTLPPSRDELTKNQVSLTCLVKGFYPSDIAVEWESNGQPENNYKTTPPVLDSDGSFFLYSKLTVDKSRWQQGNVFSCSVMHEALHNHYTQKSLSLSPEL

SMILES	IC50 [1]	P-Selectin normalized ratio of %-inhibition of compound divided by %-inhibition of bimosiamose [2]	IC50 [3]	E-Selectin normalized ratio of %-inhibition of compound divided by %-inhibition of bimosiamose [4]	IC50 [5]
O=C(O)Cc1cccc(-c2cc(CCCCCCc3ccc(O[C@H]4O[C@H](CO)[C@@H](O)[C@H](O)[C@@H]4O)c(-c4cccc(CC(=O)O)c4)c3)ccc2O[C@H]2O[C@H](CO)[C@@H](O)[C@H](O)[C@@H]2O)c1 [Bimosiamose, bimosiamose, reference compound]	> 500 µM	–	–	–	–
COc1ccc(-c2cccc(C(=O)Nc3ccccc3-c3ccc(CC(=O)O)s3)c2)c(OC)c1OC [Compound 61]	385 µM	–	186 µM	–	> 500 µM
CCOC(=O)c1cc(-c2ccc(NC(=O)Cc3ccc(OC)c(OC)c3OC)cc2)oc1C [Compound 62]	45.3 µM	–	46.4 µM	–	74.7 µM
COc1ccc(-c2cc(C(=O)Nc3ccccc3-c3ccc(CC(=O)O)s3)cc([N+](=O)[O-])c2)c(OC)c1OC [Compound 63]	76.1 µM	1.06 Ratio	28.5 µM	1.46 Ratio	> 500 µM
COc1cc(CCC(=O)Nc2cccc(N)c2)cc(OC)c1OC [Compound 60]	12.8 µM	–	15 µM	–	18.2 µM

Results, then the molecule that gave them:

IC50 [1]	P-Selectin normalized ratio of %-inhibition of compound divided by %-inhibition of bimosiamose [2]	IC50 [3]	E-Selectin normalized ratio of %-inhibition of compound divided by %-inhibition of bimosiamose [4]	IC50 [5]	SMILES
383 µM	1.01 Ratio	107 µM	1.27 Ratio	> 500 µM	COc1ccc(-c2cccc(C(=O)Nc3ccccc3-c3ccc(C(=O)O)s3)c2)c(OC)c1OC [Compound 64]
59.5 µM	2.62 Ratio	32.6 µM	1.23 Ratio	–	COc1ccc(-c2cccc(C(=O)Nc3ccccc3-c3ccc(Cc4nnn[nH]4)s3)c2)c(OC)c1OC [Compound 87, 2′,3′,4′-Trimethoxy-biphenyl-3-carboxylic acid {2-[5-(1H-tetrazol-5-ylmethyl)-thiophen-2-yl]-phenyl}-amide]
